Experimental data from US7098210B2, “2h-pyridazine-3-one derivatives, pharmaceutical compositions containing the same and a process for the preparation of the active ingredient” (Egis Gyógyszergyár Rt., priority 2001, dated 2006).

Key:
male Wistar rats [1] = assay: Inhibition of conditioned avoiding response (CAR), shuttle-box; type: in vivo, rat; details: compound given 1 hour before the series of experiment, 50% inhibition dose
Description: 1.1 Inhibition of Conditioned Avoiding Response (CAR)
The antipsychotic (neuroleptic) effect was measured by determining the inhibition of the learned conditioned avoiding reflex. At the beginning of teaching, male Wistar rats of 120 to 150 g body weight were used for the experiments. The experimental apparatus was the so called shuttle-box consisting of two rooms of 24 cm×24.5 cm×23 cm size separated from each other by a wall. The two rooms were connected by a gate of 6 cm×9 cm size. During the test, the task of the animals was to pass from one room to the other through the gate in case of a suitable warning stimulus, thus, avoiding the punishing (unconditioned) stimulus. The warning (conditioned) stimulus appeared in the room where the animal was staying. The conditioned stimulus (CS) was a gleaming (1 Hz) white light lasting for 15 seconds. The unconditioned stimulus (US) was a randomized electric shock to the sole with an intensity of 0.6 mA which appeared in the last 5 seconds of the conditioned stimulus. Passing from one room of the shuttle-box to the other during the conditioned stimulus was considered as avoiding response, while passing during the unconditioned stimulus was considered as escaping response. Both responses stopped the actual stimulus, and the trial was finished. The intertrial interval (ITI) was 15 seconds. 80 trials were performed on a day. The learning performance was measured as the ratio of the number of the successful avoiding responses to the total number of trials in percentage. The effect of the neuroleptics was determined on the animals showing a performance of at least 75% after the stabilization of the conditioned reflex. The test compounds were administered to the rats once weekly, 1 hour before the series of experiment. When evaluating the effect of the neuroleptics in each group, the performance of the animals on the day before was used as control. […] These values are given in Table I. Chlorpromazine [2-chloro-10-(3dimethylaminopropyl)phenothiazine] and clozapine [8-chloro-11-(4methyl-1-piperazinyl)-5H-dibenzo[b,e][1,4]diazepine] were used as the reference substance.

mice = assay: Inhibition of hypermotility induced by phencyclidine (PCP); type: in vivo; details: Mus musculus, 1 h, sc., 3 mg/kg phencyclidine intraperitoneally 60 minutes after treatment, read-out: ID50 in mg/kg sc.
male NMRI mice [2] = assay: Inhibition of apomorphine induced climbing on mouse; type: in vivo; details: 1 h, po., apomorphine hydrochloride subcutaneously 60 min after treatment
Description: (§1) 1.2 Inhibition of Apomorphine Stereotypy and Climbing on Mouse
(§2) Male NMRI mice of 20 to 24 g body weight were used in the experiments. The animals were treated with the carrier and the test substance (20 ml of volume/kg body weight), respectively, then 30 minutes later, for habituation, they were placed into wire screen cages of 12 cm×12 cm×12 cm size which could be covered by plexyglass plates. After 30 minutes, […] of apomorphine hydrochloride were administered to the mice in a volume of 10 ml/kg, subcutaneously. The measurement of the stereotyped behaviour was begun at once after the treatment with apomorphine and continued for 25 minutes. The measurement was performed by means of a scale having five grades: • 0 point: normal behaviour corresponding to that of the control animals. • 1 point: permanent exploration activity, smelling or moving the head sideways from time to time. • 2 points: intensive continuous head movement or smelling, periodical exploration activity. • 3 points: licking, biting or gnawing from time to time, alternating with intensive smelling or head movement, locomotor activity lasting for a very short time. • 4 points: continuous intensive licking and/or gnawing in the same place without any locomotor or exploration activity.
The posture when the mouse climbed up on the vertical wall with at least three legs was considered as climbing. The evaluation was performed in the last ten minutes of the observation on the basis yes/no (+/−).
The frequency was calculated in each group, then the effect was determined in percentage considering the result obtained for the control group as 100%.
(§3) In this case again chlorpromazine and clozapine were used as the reference substance.

male NMRI mice [3] = assay: Inhibition of apomorphine induced stereotypy on mouse; type: in vivo; details: apomorphine hydrochloride subcutaneously 60 min after treatment
Description: as §1, §2
Evaluation of stereotypy: in case of each animal, the highest point value obtained during the observation was taken into consideration and recorded, respectively. From the maximum point value, median was calculated for each group which was related to the median of the control group to calculate the effect in percentage.
as §3

male Wistar rats [4] = assay: Cataleptogenous effect (method of Morpurgo); type: in vivo, rat; details: for Ratio Cat/CAR (MED/ID50): catalepsy MED divided by CAR ID50; for MED in mg/kg po.: rats, minimum effective dosis inducing catalepsy
Source text: The cataleptogenous effect was studied according to the method of Morpurgo [Morpurgo, C., Arch. Int. Pharmacodyn., 137, 84 ([…])]. Male Wistar rats of 220 to 240 g body weight have been used for the examinations. The fore-feet of the rats were placed on a gum stopper, one by one, and it was observed how the animal tolerated the unusual posture. The normal (non-cataleptic) animal removes the foot from the stopper during the measuring time of 10 seconds. If the animal keeps the foot on the stopper during the measuring time, this stiff state accompanied by myotonia is evaluated as catalepsy.

[5] = system: isolated right ventricular papillary muscle of the rabbit; assay: Cardiotoxic effect: effective refractory period (ERP) in vitro; details: for % change of ERP (1 μM): papillary muscle paced at 1 Hz, vs. baseline
Description: The cardiotoxic effect was determined in isolated right ventricular papillary muscle of the rabbit in vitro.
The modified method of Hackett et al., 1990 was used (Hacket, A. M., Mc Donald S. J., P., Schweingruber, F. and Gartwaite, S. M.: Simple in vitro method to characterize antiarrhythmic agents J. Pharmacol. Methods 23, 107–116, 1990).
The effective refractory period (ERP) was measured in isolated right ventricular papillary muscle of the rabbit in vitro.
The contractions of papillary muscle preparations obtained from New Zealand rabbits weighing 2.5–3.2 kg were evaluated. The contractions (isometrically paced at 1 Hz) were recorded by 4-channel Hugo Sachs apparatus. The effects of the test compounds or references were measured in 1 μM concentration.

SMILES | melting point | Conditioned reflex, ID50 in mg/kg (male Wistar rats [1]) | ED50 (mice) | ED50 (male NMRI mice [2]) | Inhibition of stereotypy, ID50 in mg/kg po. (male NMRI mice [3]) | Ratio Cat/CAR (MED/ID50) (male Wistar rats [4]) | MED in mg/kg po. (male Wistar rats [4]) | % change of ERP (1 μM) [5] | cardiotoxic effect (significant prolongation of ERP) ([5]; 1 μM concentration)
Cn1ncc(NCCN2CCC(c3noc4cc(F)ccc34)CC2)c(Cl)c1=O [Example 4, 4-chloro-5-{2-[4-(6-fluoro-1,2-benzisoxazole-3-yl)piperidine-1-yl]ethyl-amino}-2-methyl-2H-pyridazine-3-one] | – | 0.3 to 0.5 mg/kg | 0.07 mg/kg | 0.06 mg/kg | 0.2 mg/kg | about 6 | 3 mg/kg | 11.1 ± 1.7% | –
O=c1[nH]ncc(NCCN2CCC(c3noc4cc(F)ccc34)CC2)c1Cl [Example 8, 5-{2-[4-(6-fluoro-1,2-benzisoxazole-3-yl)piperidine-1-yl]ethyl-amino}-4-chloro-2H-pyridazine-3-one] | 229 to 231 °C | – | 0.2 mg/kg | – | – | – | ~10 mg/kg | 1.5 ± 1.5% | –
O=c1cc(NCCN2CCC(c3noc4cc(F)ccc34)CC2)cn[nH]1 [Example 9, 5-{2-[4-(6-fluoro-1,2-benzisoxazole-3-yl)piperidine-1-yl]ethyl-amino}-2H-pyridazine-3-one] | 97 to 99 °C | – | 1.4 mg/kg | – | – | – | >10 mg/kg | 0.4 ± 1.1% | –
COc1cc(C(C)=O)ccc1OCCCN1CCC(c2noc3cc(F)ccc23)CC1 [Iloperidone, reference compound] | – | – | – | – | – | – | – | 31.9 ± 7.8 % | considerable and significant cardiotoxic potential
CN(C)CCCN1c2ccccc2Sc2ccc(Cl)cc21 [chlorpromazine, 2-chloro-10-(3dimethylaminopropyl)phenothiazine, reference compound] | – | 13.2 mg/kg | – | 6.1 mg/kg | 6.8 mg/kg | – | – | – | –
CN1CCN(C2=Nc3cc(Cl)ccc3Nc3ccccc32)CC1 [clozapine, 8-chloro-11-(4methyl-1-piperazinyl)-5H-dibenzo[b,e][1,4]diazepine, reference compound] | – | 21.3 mg/kg | 2.9 mg/kg | 11.8 mg/kg | 35.4 mg/kg | – | – | – | –
O=C(CCCN1CCC(O)(c2ccc(Cl)cc2)CC1)c1ccc(F)cc1 [haloperidol, 4-(4-chlorophenyl-4-hydroxy-1-piperidinyl)-1-(4-fluorophenyl)-1-butanone, reference compound] | – | – | 1.2 mg/kg | – | – | – | 1 mg/kg | – | –

Second part, led by results:

melting point | SMILES | Conditioned reflex, ID50 in mg/kg (male Wistar rats [1]) | ED50 (mice) | ED50 (male NMRI mice [2]) | Inhibition of stereotypy, ID50 in mg/kg po. (male NMRI mice [3]) | Ratio Cat/CAR (MED/ID50) (male Wistar rats [4]) | MED in mg/kg po. (male Wistar rats [4]) | % change of ERP (1 μM) [5] | cardiotoxic effect (significant prolongation of ERP) ([5]; 1 μM concentration)
108 to 109 °C | Cn1ncc(Cl)c(NCCN2CCC(c3noc4cc(F)ccc34)CC2)c1=O [Example 1, 4-{2-[4-(6-fluoro-1,2-benzisoxazole-3-yl)piperidine-1-yl]ethyl-amino}-5-chloro-2-methyl-2H-pyridazine-3-one] | 0.7 mg/kg | 0.4 mg/kg | 0.3 mg/kg | 0.4 mg/kg | – | – | – | –
117 to 119 °C | Cn1ncc(Cl)c(NCCCN2CCC(c3noc4cc(F)ccc34)CC2)c1=O [Example 2, 4-{3-[4-(6-fluoro-1,2-benzisoxazole-3-yl)piperidine-1-yl]propyl-amino}-5-chloro-2-methyl-2H-pyridazine-3-one] | 5.8 mg/kg | – | 0.6 mg/kg | 2.0 mg/kg | – | – | – | –
198 to 200 °C | O=c1[nH]ncc(Cl)c1NCCCN1CCC(c2noc3cc(F)ccc23)CC1 [Example 3, 4-{3-[4-(6-fluoro-1,2-benzisoxazole-3-yl)piperidine-1-yl]propyl-amino}-5-chloro-2H-pyridazine-3-one] | – | – | 0.8 mg/kg | 1.2 mg/kg | – | – | – | –
200 to 202 °C | Cn1ncc(NCCCN2CCC(c3noc4cc(F)ccc34)CC2)c(Cl)c1=O [Example 5, 4-chloro-5-{3-[4-(6-fluoro-1,2-benzisoxazole-3-yl)piperidine-1-yl]propyl-amino}-2-methyl-2H-pyridazine-3-one] | ≦3.0 mg/kg | 0.46 mg/kg | 0.6 mg/kg | 2.0 mg/kg | >3 | 10 mg/kg | 5.3 ± 0.4% | –
200 to 202 °C | Cn1ncc(NCCN2CCC(c3noc4cc(F)ccc34)CC2)cc1=O [Example 6, 5-{2-[4-(6-fluoro-1,2-benzisoxazole-3-yl)piperidine-1-yl]ethyl-amino}-2-methyl-2H-pyridazine-3-one] | – | 0.9 mg/kg | – | – | – | >30 mg/kg | 6.1 ± 1.9% | –
163 to 165 °C | Cn1ncc(NCCCN2CCC(c3noc4cc(F)ccc34)CC2)cc1=O [Example 7, 5-{3-[4-(6-fluoro-1,2-benzisoxazole-3-yl)piperidine-1-yl]propyl-amino}-2-methyl-2H-pyridazine-3-one] | – | 0.4 mg/kg | – | – | – | ~30 mg/kg | – | –
